Source: paper PMC11842588, “A first-in-class selective inhibitor of ERK1/2 and ERK5 overcomes drug resistance with a single-molecule strategy” (Signal Transduction and Targeted Therapy, 2025)

Legend:
Test in all cases: Kinase profiling
Format in all cases: biochemical
[1] = biological target: T1, ALK2(h) (Homo sapiens, UniProt Q04771)
T1 construct: purchased Eurofins Cerep SA (KinaseProfiler)
Protocol: (§1) 380 kinases inhibitory activities of SKLB-D18 were conducted by Eurofins Cerep SA. The result was illustrated by kinase tree (http://www.kinhub.org/kinmap/).

[2] = biological target: T2, ATR/ATRIP(h) (Homo sapiens, UniProt Q13535)
T2 construct: purchased Eurofins Cerep SA (KinaseProfiler)
Protocol: as §1

[3] = biological target: T3, BRK(h) (Homo sapiens, UniProt Q13882)
T3 construct: purchased Eurofins Cerep SA (KinaseProfiler)
Protocol: as §1

[4] = biological target: T4, CDK6/cyclinD3(h) (Homo sapiens, UniProt Q00534)
T4 construct: purchased Eurofins Cerep SA (KinaseProfiler)
Protocol: as §1

[5] = biological target: T5, CSK(h) (Homo sapiens, UniProt P41240)
T5 construct: purchased Eurofins Cerep SA (KinaseProfiler)
Protocol: as §1

[6] = biological target: T6, DDR1(h) (Homo sapiens, UniProt Q08345)
T6 construct: purchased Eurofins Cerep SA (KinaseProfiler)
Protocol: as §1

[7] = biological target: T7, EphA2(h) (Homo sapiens, UniProt P29317)
T7 construct: purchased Eurofins Cerep SA (KinaseProfiler)
Protocol: as §1

[8] = biological target: T8, EphA7(h) (Homo sapiens, UniProt Q15375)
T8 construct: purchased Eurofins Cerep SA (KinaseProfiler)
Protocol: as §1

[9] = biological target: T9, EphB2(h) (Homo sapiens, UniProt P29323)
T9 construct: purchased Eurofins Cerep SA (KinaseProfiler)
Protocol: as §1

[10] = biological target: T10, ErbB4(h) (Homo sapiens, UniProt Q15303)
T10 construct: purchased Eurofins Cerep SA (KinaseProfiler)
Protocol: as §1

[11] = biological target: T11, Flt3(h) (Homo sapiens, UniProt P36888)
T11 construct: purchased Eurofins Cerep SA (KinaseProfiler)
Protocol: as §1

[12] = biological target: T12, Fyn(h) (Homo sapiens, UniProt P06241)
T12 construct: purchased Eurofins Cerep SA (KinaseProfiler)
Protocol: as §1

[13] = biological target: T13, GRK7(h) (Homo sapiens, UniProt Q8WTQ7)
T13 construct: purchased Eurofins Cerep SA (KinaseProfiler)
Protocol: as §1

[14] = biological target: T14, IR(h), activated (Homo sapiens, UniProt P06213)
T14 construct: purchased Eurofins Cerep SA (KinaseProfiler)
Protocol: as §1

[15] = biological target: T15, JNK2α2(h) (Homo sapiens, UniProt P45984)
T15 construct: purchased Eurofins Cerep SA (KinaseProfiler)
Protocol: as §1

[16] = biological target: T16, MAP4K3(h) (Homo sapiens, UniProt Q8IVH8)
T16 construct: purchased Eurofins Cerep SA (KinaseProfiler)
Protocol: as §1

[17] = biological target: T17, MARK4(h) (Homo sapiens, UniProt Q96L34)
T17 construct: purchased Eurofins Cerep SA (KinaseProfiler)
Protocol: as §1

[18] = biological target: T18, MATK(h) (Homo sapiens, UniProt P42679)
T18 construct: purchased Eurofins Cerep SA (KinaseProfiler)
Protocol: as §1

[19] = biological target: T19, MKK3(h) (Homo sapiens, UniProt P46734)
T19 construct: purchased Eurofins Cerep SA (KinaseProfiler)
Protocol: as §1

[20] = biological target: T20, MKK6(h) (Homo sapiens, UniProt P52564)
T20 construct: purchased Eurofins Cerep SA (KinaseProfiler)
Protocol: as §1

[21] = biological target: T21, MLK3(h) (Homo sapiens, UniProt Q16584)
T21 construct: purchased Eurofins Cerep SA (KinaseProfiler)
Protocol: as §1

[22] = biological target: T22, MSK1(h) (Homo sapiens, UniProt O75582)
T22 construct: purchased Eurofins Cerep SA (KinaseProfiler)
Protocol: as §1

[23] = biological target: T23, Mer(h) (Homo sapiens, UniProt Q12866)
T23 construct: purchased Eurofins Cerep SA (KinaseProfiler)
Protocol: as §1

[24] = biological target: T24, NEK11(h) (Homo sapiens, UniProt Q8NG66)
T24 construct: purchased Eurofins Cerep SA (KinaseProfiler)
Protocol: as §1

[25] = biological target: T25, NEK3(h) (Homo sapiens, UniProt P51956)
T25 construct: purchased Eurofins Cerep SA (KinaseProfiler)
Protocol: as §1

[26] = biological target: T26, PDGFRβ(h) (Homo sapiens, UniProt P09619)
T26 construct: purchased Eurofins Cerep SA (KinaseProfiler)
Protocol: as §1

[27] = biological target: T27, PI3KC2a(h) (Homo sapiens, UniProt O00443)
T27 construct: purchased Eurofins Cerep SA (KinaseProfiler)
Protocol: as §1

[28] = biological target: T28, PKCδ(h) (Homo sapiens, UniProt Q05655)
T28 construct: purchased Eurofins Cerep SA (KinaseProfiler)
Protocol: as §1

[29] = biological target: T29, PKCη(h) (Homo sapiens, UniProt P24723)
T29 construct: purchased Eurofins Cerep SA (KinaseProfiler)
Protocol: as §1

[30] = biological target: T30, PKCθ(h) (Homo sapiens, UniProt Q04759)
T30 construct: purchased Eurofins Cerep SA (KinaseProfiler)
Protocol: as §1

[31] = biological target: T31, PKCμ(h) (Homo sapiens, UniProt Q15139)
T31 construct: purchased Eurofins Cerep SA (KinaseProfiler)
Protocol: as §1

[32] = biological target: T32, PRAK(h) (Homo sapiens, UniProt Q8IW41)
T32 construct: purchased Eurofins Cerep SA (KinaseProfiler)
Protocol: as §1

[33] = biological target: T33, Pim-2(h) (Homo sapiens, UniProt Q9P1W9)
T33 construct: purchased Eurofins Cerep SA (KinaseProfiler)
Protocol: as §1

[34] = biological target: T34, RIPK2(h) (Homo sapiens, UniProt O43353)
T34 construct: purchased Eurofins Cerep SA (KinaseProfiler)
Protocol: as §1

[35] = biological target: T35, Rsk2(h) (Homo sapiens, UniProt P51812)
T35 construct: purchased Eurofins Cerep SA (KinaseProfiler)
Protocol: as §1

[36] = biological target: T36, SIK2(h) (Homo sapiens, UniProt Q9H0K1)
T36 construct: purchased Eurofins Cerep SA (KinaseProfiler)
Protocol: as §1

[37] = biological target: T37, STK33(h) (Homo sapiens, UniProt Q9BYT3)
T37 construct: purchased Eurofins Cerep SA (KinaseProfiler)
Protocol: as §1

[38] = biological target: T38, TAK1(h) (Homo sapiens, UniProt O43318)
T38 construct: purchased Eurofins Cerep SA (KinaseProfiler)
Protocol: as §1

[39] = biological target: T39, TYK2(h) (Homo sapiens, UniProt P29597)
T39 construct: purchased Eurofins Cerep SA (KinaseProfiler)
Protocol: as §1

[40] = biological target: T40, TrkB(h) (Homo sapiens, UniProt Q16620)
T40 construct: purchased Eurofins Cerep SA (KinaseProfiler)
Protocol: as §1

[41] = biological target: T41, VRK1(h) (Homo sapiens, UniProt Q99986)
T41 construct: purchased Eurofins Cerep SA (KinaseProfiler)
Protocol: as §1

T15 sequence (P45984 whole entry): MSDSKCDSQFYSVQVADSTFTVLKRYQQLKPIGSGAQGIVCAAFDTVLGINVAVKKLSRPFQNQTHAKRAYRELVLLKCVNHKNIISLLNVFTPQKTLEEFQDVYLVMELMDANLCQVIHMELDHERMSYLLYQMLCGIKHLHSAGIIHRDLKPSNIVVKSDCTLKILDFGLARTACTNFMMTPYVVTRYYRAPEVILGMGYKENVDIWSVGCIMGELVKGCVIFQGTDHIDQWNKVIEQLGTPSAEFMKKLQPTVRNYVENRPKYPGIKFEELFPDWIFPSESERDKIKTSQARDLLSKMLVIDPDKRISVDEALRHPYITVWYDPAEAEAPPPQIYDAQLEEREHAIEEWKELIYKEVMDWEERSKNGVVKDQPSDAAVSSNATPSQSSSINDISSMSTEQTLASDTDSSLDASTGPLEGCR
T41 sequence (Q99986 whole entry): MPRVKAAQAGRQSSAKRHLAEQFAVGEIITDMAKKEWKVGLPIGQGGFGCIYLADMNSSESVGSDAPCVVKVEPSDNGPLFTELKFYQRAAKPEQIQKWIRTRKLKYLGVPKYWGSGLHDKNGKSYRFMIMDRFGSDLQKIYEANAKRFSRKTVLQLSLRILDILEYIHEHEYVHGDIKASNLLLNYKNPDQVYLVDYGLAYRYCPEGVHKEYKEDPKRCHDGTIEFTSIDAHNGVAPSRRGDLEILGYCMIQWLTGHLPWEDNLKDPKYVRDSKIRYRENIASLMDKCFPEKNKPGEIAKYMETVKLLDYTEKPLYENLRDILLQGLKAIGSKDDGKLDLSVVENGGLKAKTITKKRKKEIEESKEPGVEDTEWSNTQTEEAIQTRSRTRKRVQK
T17 sequence (Q96L34 whole entry): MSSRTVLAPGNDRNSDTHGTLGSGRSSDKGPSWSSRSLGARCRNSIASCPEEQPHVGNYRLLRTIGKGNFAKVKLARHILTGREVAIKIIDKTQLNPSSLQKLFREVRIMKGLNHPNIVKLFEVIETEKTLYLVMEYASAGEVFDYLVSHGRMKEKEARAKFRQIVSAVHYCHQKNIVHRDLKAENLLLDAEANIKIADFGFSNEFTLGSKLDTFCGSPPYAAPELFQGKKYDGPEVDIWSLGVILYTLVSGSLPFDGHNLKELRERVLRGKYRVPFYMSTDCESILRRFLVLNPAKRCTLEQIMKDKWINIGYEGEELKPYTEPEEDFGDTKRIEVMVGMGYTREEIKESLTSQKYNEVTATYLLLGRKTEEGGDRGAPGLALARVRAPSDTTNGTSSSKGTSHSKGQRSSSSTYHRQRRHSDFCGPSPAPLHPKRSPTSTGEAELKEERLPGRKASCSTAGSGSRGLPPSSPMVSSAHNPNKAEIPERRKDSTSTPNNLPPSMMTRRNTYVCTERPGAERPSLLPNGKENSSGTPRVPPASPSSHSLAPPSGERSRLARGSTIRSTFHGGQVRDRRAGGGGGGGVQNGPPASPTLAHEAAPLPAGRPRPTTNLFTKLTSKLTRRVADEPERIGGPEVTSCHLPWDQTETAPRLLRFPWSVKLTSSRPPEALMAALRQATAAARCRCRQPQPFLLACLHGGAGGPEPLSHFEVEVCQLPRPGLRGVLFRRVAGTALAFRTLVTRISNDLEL
T40 sequence (Q16620 32-822): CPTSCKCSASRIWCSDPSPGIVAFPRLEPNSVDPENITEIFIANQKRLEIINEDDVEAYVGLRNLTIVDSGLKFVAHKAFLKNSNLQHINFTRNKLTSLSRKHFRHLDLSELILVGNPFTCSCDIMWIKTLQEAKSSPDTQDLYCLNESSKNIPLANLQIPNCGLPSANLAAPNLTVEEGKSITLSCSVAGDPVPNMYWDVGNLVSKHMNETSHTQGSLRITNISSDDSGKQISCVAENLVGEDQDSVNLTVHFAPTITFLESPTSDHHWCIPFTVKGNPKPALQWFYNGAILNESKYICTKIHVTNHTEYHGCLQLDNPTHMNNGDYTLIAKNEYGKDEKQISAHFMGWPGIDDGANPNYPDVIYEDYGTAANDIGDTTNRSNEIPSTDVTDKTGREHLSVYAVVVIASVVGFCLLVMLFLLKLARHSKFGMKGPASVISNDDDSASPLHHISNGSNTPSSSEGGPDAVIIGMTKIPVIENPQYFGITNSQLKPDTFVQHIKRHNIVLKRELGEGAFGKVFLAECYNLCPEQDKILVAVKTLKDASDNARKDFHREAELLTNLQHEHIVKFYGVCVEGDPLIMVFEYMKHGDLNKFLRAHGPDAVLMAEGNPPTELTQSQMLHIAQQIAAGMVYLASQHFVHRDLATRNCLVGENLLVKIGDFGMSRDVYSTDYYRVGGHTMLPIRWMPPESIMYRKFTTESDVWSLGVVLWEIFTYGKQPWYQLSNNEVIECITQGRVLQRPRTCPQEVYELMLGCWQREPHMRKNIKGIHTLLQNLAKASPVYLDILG
T32 sequence (Q8IW41 whole entry): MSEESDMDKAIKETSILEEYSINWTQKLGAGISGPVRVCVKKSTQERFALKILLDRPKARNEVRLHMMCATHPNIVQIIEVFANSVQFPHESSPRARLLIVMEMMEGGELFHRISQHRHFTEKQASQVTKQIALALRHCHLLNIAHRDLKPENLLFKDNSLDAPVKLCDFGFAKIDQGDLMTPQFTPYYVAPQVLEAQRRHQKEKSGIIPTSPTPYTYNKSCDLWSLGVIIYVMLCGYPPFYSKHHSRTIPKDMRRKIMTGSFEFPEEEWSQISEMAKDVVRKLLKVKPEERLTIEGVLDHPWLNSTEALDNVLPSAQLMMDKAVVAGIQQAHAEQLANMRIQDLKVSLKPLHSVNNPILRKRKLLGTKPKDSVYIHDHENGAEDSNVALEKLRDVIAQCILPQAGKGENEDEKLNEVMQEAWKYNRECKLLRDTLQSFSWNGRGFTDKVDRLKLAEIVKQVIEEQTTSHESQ
T31 sequence (Q15139 whole entry): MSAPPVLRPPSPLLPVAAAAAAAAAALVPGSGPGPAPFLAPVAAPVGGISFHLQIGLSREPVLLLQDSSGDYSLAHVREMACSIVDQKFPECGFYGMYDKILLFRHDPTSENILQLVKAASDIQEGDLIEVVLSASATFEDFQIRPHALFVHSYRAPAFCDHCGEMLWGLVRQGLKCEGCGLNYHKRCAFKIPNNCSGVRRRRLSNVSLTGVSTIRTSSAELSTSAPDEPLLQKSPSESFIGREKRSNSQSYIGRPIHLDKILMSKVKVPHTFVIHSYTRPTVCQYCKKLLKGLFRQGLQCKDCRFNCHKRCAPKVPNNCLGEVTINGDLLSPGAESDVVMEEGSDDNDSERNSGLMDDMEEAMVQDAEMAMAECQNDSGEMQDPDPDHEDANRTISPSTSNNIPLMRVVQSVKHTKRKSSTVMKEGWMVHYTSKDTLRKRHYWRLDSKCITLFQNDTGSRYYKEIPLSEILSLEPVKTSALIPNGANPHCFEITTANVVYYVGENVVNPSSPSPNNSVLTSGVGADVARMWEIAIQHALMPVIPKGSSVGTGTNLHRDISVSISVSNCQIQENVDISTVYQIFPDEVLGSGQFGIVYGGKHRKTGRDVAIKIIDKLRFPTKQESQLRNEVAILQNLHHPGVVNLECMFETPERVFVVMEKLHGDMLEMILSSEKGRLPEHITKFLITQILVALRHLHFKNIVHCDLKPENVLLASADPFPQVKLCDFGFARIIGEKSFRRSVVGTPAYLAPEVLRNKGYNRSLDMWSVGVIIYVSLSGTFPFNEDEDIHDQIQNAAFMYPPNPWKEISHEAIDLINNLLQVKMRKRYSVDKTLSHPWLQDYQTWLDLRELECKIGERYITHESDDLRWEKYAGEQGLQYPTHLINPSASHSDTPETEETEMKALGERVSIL
T13 sequence (Q8WTQ7 whole entry): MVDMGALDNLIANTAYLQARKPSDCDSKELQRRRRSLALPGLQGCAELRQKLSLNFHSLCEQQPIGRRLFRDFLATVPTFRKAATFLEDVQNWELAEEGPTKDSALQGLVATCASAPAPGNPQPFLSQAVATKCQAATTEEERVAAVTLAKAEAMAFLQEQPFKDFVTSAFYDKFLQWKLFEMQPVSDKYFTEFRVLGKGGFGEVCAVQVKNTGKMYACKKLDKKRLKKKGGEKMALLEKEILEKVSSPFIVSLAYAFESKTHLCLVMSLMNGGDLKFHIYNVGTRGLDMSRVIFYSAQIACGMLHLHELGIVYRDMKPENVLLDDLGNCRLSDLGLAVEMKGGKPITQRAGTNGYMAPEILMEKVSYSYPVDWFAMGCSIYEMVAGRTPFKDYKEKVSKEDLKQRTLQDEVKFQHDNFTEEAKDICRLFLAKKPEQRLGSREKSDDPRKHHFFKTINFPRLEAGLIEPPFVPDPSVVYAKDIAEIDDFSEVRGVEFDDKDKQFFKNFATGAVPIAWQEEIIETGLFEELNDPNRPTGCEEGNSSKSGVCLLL
T33 sequence (Q9P1W9 whole entry): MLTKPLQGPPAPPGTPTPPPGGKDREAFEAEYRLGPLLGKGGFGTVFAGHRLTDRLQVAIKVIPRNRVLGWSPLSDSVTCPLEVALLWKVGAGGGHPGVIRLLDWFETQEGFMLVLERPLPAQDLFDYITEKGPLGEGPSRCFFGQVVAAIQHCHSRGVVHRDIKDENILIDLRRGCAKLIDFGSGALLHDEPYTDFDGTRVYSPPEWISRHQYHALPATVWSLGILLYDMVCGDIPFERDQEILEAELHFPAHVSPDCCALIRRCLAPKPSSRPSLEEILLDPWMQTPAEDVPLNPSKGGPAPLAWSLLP
T38 sequence (O43318 1-303 limits assumed): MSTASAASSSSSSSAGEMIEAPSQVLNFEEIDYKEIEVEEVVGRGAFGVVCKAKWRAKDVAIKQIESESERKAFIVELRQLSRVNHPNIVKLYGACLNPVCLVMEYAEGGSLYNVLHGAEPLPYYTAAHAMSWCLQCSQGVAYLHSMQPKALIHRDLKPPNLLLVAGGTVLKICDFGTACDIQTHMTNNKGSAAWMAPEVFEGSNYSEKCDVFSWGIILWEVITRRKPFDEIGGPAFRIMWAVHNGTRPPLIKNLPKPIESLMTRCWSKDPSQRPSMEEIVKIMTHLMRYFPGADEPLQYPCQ

CN(C)Cc1cccc(Nc2ncc(Cl)c(-c3csc(C(=O)NN4CCOCC4)c3)n2)c1 [SKLB-D18, 4-(5-chloro-2-((3-((dimethylamino)methyl)phenyl)amino)pyrimidin-4-yl)-N-morpholinothiophene-2-carboxamide]
inhibition at 1 µM [1]: 16%
inhibition at 1 µM [2]: 13%
inhibition at 1 µM [3]: 32%
inhibition at 1 µM [4]: 47%
inhibition at 1 µM [5]: -11%
inhibition at 1 µM [6]: 35%
inhibition at 1 µM [7]: 17%
inhibition at 1 µM [8]: 38%
inhibition at 1 µM [9]: -1%
inhibition at 1 µM [10]: -16%
inhibition at 1 µM [11]: 55%
inhibition at 1 µM [12]: 60%
inhibition at 1 µM [13]: 5%
inhibition at 1 µM [14]: 13%
inhibition at 1 µM [15]: 48%
inhibition at 1 µM [16]: 60%
inhibition at 1 µM [17]: 64%
inhibition at 1 µM [18]: 2%
inhibition at 1 µM [19]: 4%
inhibition at 1 µM [20]: 5%
inhibition at 1 µM [21]: 69%
inhibition at 1 µM [22]: 17%
inhibition at 1 µM [23]: 69%
inhibition at 1 µM [24]: -4%
inhibition at 1 µM [25]: 63%
inhibition at 1 µM [26]: 21%
inhibition at 1 µM [27]: 1%
inhibition at 1 µM [28]: 23%
inhibition at 1 µM [29]: 16%
inhibition at 1 µM [30]: 7%
inhibition at 1 µM [31]: 64%
inhibition at 1 µM [32]: -2%
inhibition at 1 µM [33]: 26%
inhibition at 1 µM [34]: 61%
inhibition at 1 µM [35]: 41%
inhibition at 1 µM [36]: 67%
inhibition at 1 µM [37]: 63%
inhibition at 1 µM [38]: 64%
inhibition at 1 µM [39]: 83%
inhibition at 1 µM [40]: 46%
inhibition at 1 µM [41]: 16%
